Results on two molecules are retold here after patent publication US5945401A, “Peptide analogues of the 65KD isoform of human glutamic acid decarboxylase and uses thereof” (priority 1995, dated 1999).

In assay [1] the test system is T cells from transgenic NOD mice expressing the human DQβ1*0302 gene. Nature of the assay: Proliferation of T cells from transgenic NOD mice expressing human DQβ1*0302. Type of assay: cell-based. To be noted: T cells from DQβ1*0302 transgenic NOD mice. The source says: Type 1 diabetes is associated with the HLA DQβ1*0302 allele (Nepom and Erlich, Ann. Rev. Immunol. 9:493-525, 1991). Transgenic NOD mice expressing the human DQβ1*0302 gene were constructed. […] Thus, these peptides are recognized by T cells in the context of DQβ1*0302 and are additional peptides suitable for use in the present invention.

Assay [2] has as its system T cells from Type 1 diabetic patients and healthy controls. In words: T cell proliferation assay with GAD 65 peptides (epitope mapping in patients, controls, co-twins). The assay is classed as cell-based, human. To be noted: patients compared with controls. Here is the method: FIG. 2 is a graph illustrating the T cell proliferative responses to peptides corresponding to various regions of GAD 65. Responses to peptides (5 μg/ml) in 5-7 Type 1 diabetic patients (solid bars) and 4-5 healthy controls (hatched bars) are expressed by the number of responders (y-axis). Background counts were normally between 600 and 3000 cpm, while positive wells had to exceed 1500 and 6000 cpm respective to background counts.
A major focus of research into autoimmunity is the identification of dominant epitopes on disease-associated auto-antigens recognized by autoreactive T cells. Immunodominant regions of the antigen GAD 65 have been identified in Type 1 diabetic patients (Lohmann et al., Lancet 343:1607-08, 1994; Atkinson et al., J Clin. Invest. 94:2125-2129, 1994). Within the subject invention, a detailed T cell epitope mapping of immunodominant regions in patients with Type 1 diabetes was performed. Two regions of GAD 65 were selected for decoding, representing the regions associated with the highest frequency of T cell responses in both Type 1 diabetics (amino acid residues 473-555 and 161-243) and control subjects (amino acid residues 161-243) (FIGS. 2 and 4). Nine diabetics who responded to region 473-555 were selected for further study of their response to 18 single peptides covering this region. […]

For “GAD 65 native protein: 65 kD isoform of human glutamic acid decarboxylase, native protein”, the “proliferation of T cells” value in assay [1] is listed as “stimulated to proliferate”.

B1: region 161-243: region of GAD 65, residues 161-243, tested as overlapping peptides (peptide, UniProt Q05329 161-243, looked up, fragment)
chain: MHCQTTLKYAIKTGHPRYFNQLSTGLDMVGLAADWLTSTANTNMFTYEIAPVFVLLEYVTLKKMREIIGWPGGSGDGIFSPGG
modifications: tested as overlapping peptides
notes: region of GAD 65, residues 161-243, tested as overlapping peptides
For B1, the “recognition by T cells of Type 1 diabetic patients versus controls” value in assay [2] is “recognized by T cells from both normals and IDDM patients”.
